From US20230047788A1, “COMPOSITIONS COMPRISING 5-CHOLESTEN-3, 25-DIOL, 3-SULFATE (25HC3S) OR PHARMACEUTICALLY ACCEPTABLE SALT THEREOF AND AT LEAST ONE CYCLIC OLIGOSACCHARIDE” (Virginia Commonwealth University, priority 2016, published 2023)
Values joined by “and” are separate entries in the source; they are usually repeats but may differ in a detail not shown here. Equal entries are not always repeated.

Tests used:
[1] = Solubility of 25HC3S in alpha-, beta- and gamma-cyclodextrin, 10 mM phosphate buffer pH 7.4; format: physicochemical; details: for repeated solubility of 25HC3S: repeated experiment
Description: The solubility of 25HC3S at ambient room temperature for one day in 5 and 10% (w/v) alpha cyclodextrin (α-CD), 1% (w/v) beta cyclodextrin (β-CD) and 5 and 10% (w/v) gamma cyclodextrin (γ-CD), each containing 10 mM phosphate buffer at pH 7.4 was determined by an HPLC method.
α-CD, β-CD and γ-CD were used in the study. Sodium phosphate monobasic, monohydrate and sodium phosphate, dibasic, anhydrous were used to prepare 10 mM phosphate buffer at pH 7.4.
Approximately 30 to 50 mg of 25HC3S was weighed into a 20 mL vial (5 vials total, one vial for each vehicle). Approximately 8 mL each of 5 and 10% (w/v) α-CD, 1% (w/v) β-CD, and 5 and 10% (w/v) γ-CD containing 10 mM phosphate buffer at pH 7.4 was added to each vial, respectively. The samples were sonicated and vortexed to disperse the drug. The drug suspensions in these 5 vials were stirred at 500 rpm at ambient RT (20.0-22.2° C.). On day 1, approximately 1.2 mL each of the suspensions was transferred into 2 mL conical vials (a total of 5 vials for each suspension) and centrifuged at 12,000 rpm for 10 min. Approximately 1 mL of the supernatant from each suspension (prior to filtration) was used for HPLC analysis. The supernatants for the rest of the vials from the same suspension were combined together and filtered through […], 13 mm in diameter Acrodisk syringe filter with Nylon membrane. The first 2-mL of filtrate was discarded. The next 2 consecutive filtrates of 0.5-0.7 mL each were collected into HPLC vials for analysis.

[2] = format: in vivo, Beagle dogs
Description: The objectives of this study were to evaluate the potential toxicity of 25HC3S when administered once daily by subcutaneous injection to Beagle dogs for 14 consecutive days. 25HC3S sodium salt in the vehicle (250 mg/mL hydroxypropyl-beta-cyclodextrin with 10 mM sodium phosphate buffer [approximate pH 7.6] in sterile water for irrigation) was administered via subcutaneous injection in the dorsoscapular area once daily for 14 consecutive days to 3 groups (Groups 2-4) of Beagle dogs. Dosage levels were 3, 10, and 30 mg/kg/day for Groups 2, 3, and 4, respectively. […] The dose volume was 1, 0.1, 0.33, and 1 mL/kg for Groups 1, 2, 3, and 4, respectively. Each group consisted of 4 males and 4 females. The animals were observed twice daily for mortality and moribundity. Clinical examinations (including injection site observations) were performed once daily for at least 6 days, including the day of randomization, prior to randomization, prior to dose administration, immediately following dose administration, and at approximately 2 hours following dose administration. Blood samples for toxicokinetic evaluation were collected from all animals prior to dosing (study day 0 only) and at 0.5, 1, 2, 4, 8, and 24 hours after dosing on study days 0 and 13.

C[C@H](CCCC(C)(C)O)[C@H]1CC[C@H]2[C@@H]3CC=C4C[C@@H](OS(=O)(=O)[O-])CC[C@]4(C)[C@H]3CC[C@]12C.[Na+] [25HC3S, 5-cholesten-3, 25-diol, 3-sulfate]
25HC3S Solubility ([1]; 0 cyclodextrin, 10 mM phosphate pH 7.4, room temperature): 6 μg/mL and 0.012 mM
25HC3S Solubility ([1]; 1% (w/v) beta-CD): 4.314 mM
Complexation with CD ([1]; 1% (w/v) beta-CD): yes
Ratio of CD/25HC3S ([1]; 1% (w/v) beta-CD): 2 mM/mM
25HC3S Solubility ([1]; 1% (w/v) beta-CD (10 mg/mL), 10 mM phosphate pH 7.4, RT, one day): 2177.4 µg/mL
25HC3S Solubility ([1]; 5% (w/v) alpha-CD): 0.065 mM
Complexation with CD ([1]; 5% (w/v) alpha-CD): no
Ratio of CD/25HC3S ([1]; 5% (w/v) alpha-CD): 791 mM/mM
25HC3S Solubility ([1]; 5% (w/v) alpha-CD (50 mg/mL), 10 mM phosphate pH 7.4, RT, one day): 32.9 µg/mL
25HC3S Solubility ([1]; 5% (w/v) gamma-CD): 1.118 mM
Complexation with CD ([1]; 5% (w/v) gamma-CD): no
Ratio of CD/25HC3S ([1]; 5% (w/v) gamma-CD): 34 mM/mM
25HC3S Solubility ([1]; 5% (w/v) gamma-CD (50 mg/mL), 10 mM phosphate pH 7.4, RT, one day): 564.4 µg/mL
repeated solubility of 25HC3S ([1]; 5% (w/v) γ-CD): 292.4 µg/mL
25HC3S Solubility ([1]; 10% (w/v) alpha-CD): 0.089 mM
Complexation with CD ([1]; 10% (w/v) alpha-CD): no
Ratio of CD/25HC3S ([1]; 10% (w/v) alpha-CD): 1155 mM/mM
25HC3S Solubility ([1]; 10% (w/v) alpha-CD (100 mg/mL), 10 mM phosphate pH 7.4, RT, one day): 45 µg/mL
25HC3S Solubility ([1]; 10% (w/v) gamma-CD): 0.301 mM
Complexation with CD ([1]; 10% (w/v) gamma-CD): no
Ratio of CD/25HC3S ([1]; 10% (w/v) gamma-CD): 256 mM/mM
25HC3S Solubility ([1]; 10% (w/v) gamma-CD (100 mg/mL), 10 mM phosphate pH 7.4, RT, one day): 152.1 µg/mL
repeated solubility of 25HC3S ([1]; 10% (w/v) γ-CD): 98.2 µg/mL
survival to the scheduled necropsy ([2]; Beagle dogs, sc 3, 10, 30 mg/kg/day, 14 days): All animals survived
injection site changes ([2]; dog, in vivo, sc): no injection site changes appeared directly attributable
mean AUClast ([2]; dog, in vivo, sc, 30 mg/kg/day): 19,877 ng*hr/mL
mean C. ([2]; dog, in vivo, sc, 30 mg/kg/day): 7,753 ng/mL
